pIC50: −log10 of the molar value. Like-named read-outs stand apart in the source and are kept apart here.
Assays:
Assay in all cases: In vitro inhibition, CellTiter-Glo (CTG) assay, 72 hr exposure
Assay type in all cases: cell-based
[1] = test system: K562; conditions: K562, 72 hr
Procedure: (§1) Cells were grown in RPMI-1640 supplemented with L-Glutamine and 10% FBS of the following cell lines:
(§2) CCRF-CEM; CCRF-CEM-cytarabine resistant; HL-60; K562; CFPAC-1; MiaPACA-2; BxPC-3; PANC-1; HepG2; MDA-MB-231; HCT-116; A498; and NCI-H69
(§3) 18, 96 well plates of each cell line were seeded with the optimized number of cells per well in a total volume of 50 μL per well. The plates were left overnight. Plate wells were seeded with 100 μL media for media control. The following day, cells were exposed to test compounds as described below. At the same time as drug exposure, a CTG assay was conducted on the 18th plate for the 0 hr count.
(§4) The compounds were added to cells and medium already on the plate to give desired final concentrations. 50 μL media were added to cell control wells, and 50 μL of mix added to vehicle control wells. 10 μM Doxorubicin was added to appropriate wells. Cells exposed to test compound were incubated at 37° C. for 72 hr followed by a CTG assay.
(§5) At the end of the 72 hr exposure period, plates were removed for a CellTiter-Glo (CTG) assay from a 37° C., 5% CO2 incubator and placed on the bench at room temperature for 30 mins. 100 μL of CellTiter-Glo reagent was added and mixed for 2 mins, followed by a further 10 min incubation at room temperature. Luminescence was recorded using Synergy 4.0.

[2] = test system: NCI-H69
Procedure: as §1, §2, §3, §4, §5

[3] = test system: PANC-1; conditions: PANC-1, 72 hr
Procedure: as §1, §2, §3, §4, §5

[4] = test system: CCRF-CEM-cytarabine resistant
Procedure: as §1, §2, §3, §4, §5

[5] = test system: CFPAC-1
Procedure: as §1, §2, §3, §4, §5

[6] = test system: MDA-MB-231; conditions: MDA-MB-231, 72 hr
Procedure: as §1, §2, §3, §4, §5

[7] = test system: HL-60
Procedure: as §1, §2, §3, §4, §5

[8] = test system: CCRF-CEM
Procedure: as §1, §2, §3, §4, §5

[9] = test system: BxPC-3
Procedure: as §1, §2, §3, §4, §5

[10] = test system: MiaPACA-2
Procedure: as §1, §2, §3, §4, §5

[11] = test system: A498
Procedure: as §1, §2, §3, §4, §5

[12] = test system: HCT-116
Procedure: as §1, §2, §3, §4, §5

[13] = test system: HepG2
Procedure: as §1, §2, §3, §4, §5

[14] = Homo sapiens, MIA PaCa-2, MiaPACA-2, 72 hr

SMILES	pIC50 [1]	pIC50 ([2]; NCI-H69, 72 hr)	pIC50 [3]	pIC50 [4]	pIC50 ([5]; CFPAC-1, 72 hr)	pIC50 [6]	pIC50 ([7]; HL-60, 72 hr)	pIC50 [8]	pIC50 ([9]; BxPC-3, 72 hr)	pIC50 ([10]; MiaPACA-2, 72 hr)	pIC50 ([11]; A498, 72 hr)	pIC50 ([12]; HCT-116, 72 hr)	pIC50 ([13]; HepG2, 72 hr)	pIC50 ([1]; Homo sapiens)	pIC50 ([3]; Homo sapiens)	pIC50 ([5]; Homo sapiens, CFPAC-1, 72 h)	pIC50 ([6]; Homo sapiens)	pIC50 ([7]; Homo sapiens, HL-60, 72 h)	pIC50 ([8]; Homo sapiens, 72 h)	pIC50 [10, 14]	also measured
COC(=O)COP(=O)(N[C@@H](CC(C)C)C(=O)OC)OC[C@H]1S[C@@H](n2ccc(N)nc2=O)[C@@H](O)[C@@H]1O (single isomer, unassigned) [Compound 104b (diastereoisomer 2)]	4.00 to 5.00	4.00 to 5.00	4.00 to 5.00	4.00 to 5.00	4.00 to 5.00	4.00 to 5.00	> 6.00	> 6.00	4.00 to 5.00	4.00 to 5.00	4.00 to 5.00	4.00 to 5.00	4.00 to 5.00								
CCOC(=O)COP(=O)(N[C@@H](CC(C)C)C(=O)OCC)OC[C@H]1S[C@@H](n2ccc(N)nc2=O)[C@@H](O)[C@@H]1O (single isomer, unassigned) [Compound 102b (diastereoisomer 1)]				4.00 to 5.00									5.00 to 6.00	4.00 to 5.00	4.00 to 5.00	4.00 to 5.00	4.00 to 5.00	5.00 to 6.00	> 6.00	4.00 to 5.00	pIC50 ([2]; Homo sapiens, NCI-H69, 72 h): 4.00 to 5.00; pIC50 ([9]; Homo sapiens, BXPC-3, 72 h): 4.00 to 5.00; pIC50 ([11]; Homo sapiens, A498, 72 h): 4.00 to 5.00; pIC50 ([12]; Homo sapiens, HCT-116, 72 h): 4.00 to 5.00
CC(C)OC(=O)[C@H](C)NP(=O)(OC[C@H]1S[C@@H](n2ccc(N)nc2=O)[C@@H](O)[C@@H]1O)Oc1ccccc1 (single isomer, unassigned) [Compound 101b (diastereoisomer 2)]		4.00 to 5.00	4.00 to 5.00	5.00 to 6.00		4.00 to 5.00				5.00 to 6.00	4.00 to 5.00	5.00 to 6.00	5.00 to 6.00	4.00 to 5.00							pIC50 ([5]; Homo sapiens, CFPAC-1, 72 hr): 4.00 to 5.00; pIC50 ([7]; Homo sapiens, HL-60, 72 hr): 5.00 to 6.00; pIC50 ([8]; Homo sapiens): > 6.00; pIC50 ([9]; Homo sapiens, BxPC-3, 72 hr): 4.00 to 5.00
Nc1ccn([C@@H]2S[C@H](COP(=O)(O)NCc3ccccc3)[C@@H](O)[C@@H]2O)c(=O)n1 [Compound 107, [(2R,3S,4S,5R)-5-(4-amino-2-oxo-pyrimidin-1-yl)-3,4-dihydroxy-tetrahydrothiophen-2-yl]methoxy-N-benzyl-phosphonamidic acid]				4.00 to 5.00										4.00 to 5.00	4.00 to 5.00	4.00 to 5.00	4.00 to 5.00	5.00 to 6.00	5.00 to 6.00	5.00 to 6.00	pIC50 ([2]; Homo sapiens, NCI-H69, 72 h): 4.00 to 5.00; pIC50 ([9]; Homo sapiens, BXPC-3, 72 h): 4.00 to 5.00; pIC50 ([11]; Homo sapiens, A498, 72 h): 4.00 to 5.00; pIC50 ([12]; Homo sapiens, HCT-116, 72 h): 4.00 to 5.00; pIC50 ([13]; Homo sapiens, HepG2, 72 h): 5.00 to 6.00
Nc1ccn([C@@H]2S[C@H](COP(=O)(NCc3ccccc3)OCc3ccc([N+](=O)[O-])o3)[C@@H](O)[C@@H]2O)c(=O)n1 (single isomer, unassigned) [Compound 103 (diastereoisomer 1)]		4.00 to 5.00		5.00 to 6.00	4.00 to 5.00				4.00 to 5.00		4.00 to 5.00	4.00 to 5.00		5.00 to 6.00	4.00 to 5.00		4.00 to 5.00	> 6.00	> 6.00	5.00 to 6.00	pIC50 ([13]; Homo sapiens, HepG2, 72 h): 5.00 to 6.00
CCOC(=O)COP(=O)(N[C@@H](CC(C)C)C(=O)OCC)OC[C@H]1S[C@@H](n2ccc(N)nc2=O)[C@@H](O)[C@@H]1O (single isomer, unassigned) [Compound 102b (diastereoisomer 2)]	4.00 to 5.00	4.00 to 5.00	4.00 to 5.00	4.00 to 5.00	4.00 to 5.00	4.00 to 5.00	5.00 to 6.00	> 6.00	4.00 to 5.00	4.00 to 5.00	4.00 to 5.00	4.00 to 5.00	4.00 to 5.00								
CC(C)(C)SSCCOP(=O)(NCc1ccccc1)OC[C@H]1S[C@@H](n2ccc(N)nc2=O)[C@@H](O)[C@@H]1O (single isomer, unassigned) [Compound 105 (diastereoisomer 2)]	4.00 to 5.00	4.00 to 5.00	4.00 to 5.00	4.00 to 5.00	4.00 to 5.00	4.00 to 5.00	4.00 to 5.00	4.00 to 5.00	4.00 to 5.00	5.00 to 6.00	4.00 to 5.00	4.00 to 5.00	4.00 to 5.00								
Nc1ccn([C@@H]2S[C@H](COP(=O)(NCc3ccccc3)OCc3ccc([N+](=O)[O-])o3)[C@@H](O)[C@@H]2O)c(=O)n1 (single isomer, unassigned) [Compound 103 (diastereoisomer 2)]	5.00 to 6.00	5.00 to 6.00	4.00 to 5.00	5.00 to 6.00	5.00 to 6.00	4.00 to 5.00	> 6.00	> 6.00	5.00 to 6.00	5.00 to 6.00	5.00 to 6.00	5.00 to 6.00	5.00 to 6.00								
CC(C)(C)SSCCOP(=O)(NCc1ccccc1)OC[C@H]1S[C@@H](n2ccc(N)nc2=O)[C@@H](O)[C@@H]1O (single isomer, unassigned) [Compound 105 (diastereoisomer 1)]		5.00 to 6.00		4.00 to 5.00			5.00 to 6.00	5.00 to 6.00						4.00 to 5.00	4.00 to 5.00	4.00 to 5.00	4.00 to 5.00			5.00 to 6.00	pIC50 ([9]; Homo sapiens, BXPC-3, 72 h): 4.00 to 5.00; pIC50 ([11]; Homo sapiens, A498, 72 h): 4.00 to 5.00; pIC50 ([12]; Homo sapiens, HCT-116, 72 h): 4.00 to 5.00; pIC50 ([13]; Homo sapiens, HepG2, 72 h): 4.00 to 5.00
CC(=O)OC[C@H](C)NP1(=O)OC[C@H]2S[C@@H](n3ccc(N)nc3=O)[C@@H](O)[C@@H]2O1 (single isomer, unassigned) [Compound 108b (diastereoisomer 1)]				4.00 to 5.00										4.00 to 5.00	4.00 to 5.00	4.00 to 5.00	4.00 to 5.00	4.00 to 5.00	4.00 to 5.00	4.00 to 5.00	pIC50 ([2]; Homo sapiens, NCI-H69, 72 h): 4.00 to 5.00; pIC50 ([9]; Homo sapiens, BXPC-3, 72 h): 4.00 to 5.00; pIC50 ([11]; Homo sapiens, A498, 72 h): 4.00 to 5.00; pIC50 ([12]; Homo sapiens, HCT-116, 72 h): 4.00 to 5.00; pIC50 ([13]; Homo sapiens, HepG2, 72 h): 4.00 to 5.00
